Measured values: patent publication US20050032708A1, “Modulation of physiological processes and agents useful for same” (priority 2001, published 2005)
Entries after “also recorded” stand apart in the source; their conditions may differ.

Assays:
[1] = cited from earlier work
[2] = Body weights and daily water consumption of rats receiving NAC in drinking water for 14 days; type: in vivo
Description: (§1) Male Sprague Dawley rats (380-430 g) were obtained from Department of Pathology, University of Melbourne. On arrival rats were housed in pairs in a temperature-controlled (20-24° C.) colony room maintained on a 12 hr light-dark cycle (6 am-6 pm). Rats had continuous access to food and water (plain or treated) and were weighed on arrival and then daily from onset of experiment. Rats were allowed to adjust to the new environment for 3 days before starting the experiment.
(§2) This experiment consisted of 24 rats in total. Eight rats received plain drinking water (controls), 8 rats received 0.5% NAC (Sigma) in their drinking water (low dose) and 8 rats received 2% NAC in their drinking water (high dose). Drug treatment was administered for 14 consecutive days. Bottles were cleaned and fresh drug solution was made up on days 4, 8 and 11. Body weights and amount of drinking water consumed per box were measured on a daily basis. After 7 days of drug treatment, behavioural testing began and continued until day 14 of treatment.

humans = settings: cited from earlier work
Male Sprague Dawley rats = assay: Effect of amphetamine on locomotor activity of rats receiving NAC in drinking water; type: in vivo
Description: as §1, §2
Locomotor activity was assessed in 8 automated photo cell cages, data being collected in 5-min intervals. Animals were placed individually in cages and baseline activity was measured during the first 30 minutes. After 30 minutes rats received a subcutaneous injection of either saline (vehicle), 0.5 mg/kg or 5 mg/kg amphetamine and locomotor activity was measured for a further 90 minutes. Drug treatment and time of day of the experiment were both randomised (see table 1). Each rat received 3 locomotor sessions in total. A period of 3 days was allowed between locomotor experiments to ensure complete elimination of amphetamine.
Locomotor hyperactivity was obtained as total distance moved per 30 min, i.e. before injection and 0-30 min, 30-60 min and 60-90 min after injection. In order to account for slight variations in baseline activity, post-injection behaviour was expressed a change of baseline activity. Average data for rats receiving water, 0.5% NAC, or 2% NAC was compared using analysis of variance for repeated measures (ANOVA) using the Systat 9.0 software package.

[3] = 600-1200 mg/day for three weeks, Ziegler and Gries, 1997

O=C(O)CCCCC1CCSS1 (stereo not drawn) [Alpha-lipoic Acid]
Symptoms of diabetic neuropathy [1, 3]: reproducibly demonstrated benefit | Tolerability [1, 3]: tolerated with no adverse effects

CC(=O)N[C@@H](CS)C(=O)O [NAC, N-acetyl cysteine]
Average daily water consumption per box ([2]; 0.5% NAC in drinking water (low dose), 14 days of treatment, control rats 77-90 ml): 60 to 72 mL | Body weight over the treatment period compared with controls ([2]; 2% NAC in drinking water (high dose), 14 days): marked decrease in body weight | Plasma cystine levels (humans; dose of 3 g/day (4 capsules, 2 bid)): sustains elevated plasma cystine levels | Human dosing without adverse effects (humans; human, Louwerse et al., 1995): up to 5 g/day | Interaction of treatment x time, 5 mg/kg of amphetamine, vs controls (significant or not) (Male Sprague Dawley rats; 0.5% NAC): not | Overall effect of 0.5 mg/kg of amphetamine on locomotor activity vs water controls (Male Sprague Dawley rats; 0.5% NAC in drinking water, F(1,14)=5.11, P=0.04): tended to be greater | Baseline locomotor activity before injection, averaged over three sessions, vs water controls (Male Sprague Dawley rats; 0.5% or 2% NAC in drinking water, difference did not reach statistical significance): tended to be lower | Duration of locomotor hyperactivity after 5 mg/kg of amphetamine (Male Sprague Dawley rats; 2% NAC): maintained longer than in controls; also recorded: prolonged effect | Overall effect of 0.5 mg/kg of amphetamine on locomotor activity vs water controls (Male Sprague Dawley rats; 2% NAC in drinking water, F(1,13)=4.3, P=0.06): tended to be greater | Overall effect of 5 mg/kg of amphetamine on locomotor activity vs controls (Male Sprague Dawley rats; 2% NAC to drink, failed to reach overall statistical significance): tended to be greater | Interaction of treatment x time, 5 mg/kg of amphetamine, vs controls (Male Sprague Dawley rats; 2% NAC, F(2,28)=4.9, P=0.024): significant | Maximal effect of 0.5 mg/kg of amphetamine on locomotor activity vs water controls (Male Sprague Dawley rats; 30-60 min after injection, either NAC dose (0.5% or 2%), 0.5 mg/kg): significantly greater; also recorded: greater maximal effect

C[Se]CC[C@H](N)C(=O)O [Selenomethionione]
Adverse effects of long-term dose ([1]; 200 ug, one per day): no known adverse effects

O=C1O[C@H]([C@@H](O)CO)C(O)=C1O [Vitamin C]
Elevation of plasma levels ([1]; 500 mg daily): 60%

Cc1c(C)c2c(c(C)c1O)CC[C@@](C)(CCC[C@H](C)CCC[C@H](C)CCCC(C)C)O2 [alpha-tocopherol]
Adverse effects ([1]; 400 IU): without causing adverse effects | CSF levels ([1]; 400 IU): sufficient to increase CSF levels | Doses that may cause coagulopathies and can be a source of radicals ([1]; Bowry et al., 1995): higher than 2000 IU/day

CC(N)Cc1ccccc1 (stereo not drawn) [amphetamine]
Locomotor activity after subcutaneous injection of amphetamine (Male Sprague Dawley rats; 0.5 mg/kg of amphetamine, 90 min after injection): induced a behavioural hyperactivity | Locomotor activity after subcutaneous injection of amphetamine (Male Sprague Dawley rats; 5 mg/kg of amphetamine, activity fell to low levels later in the 90 min observation period): initially induced marked behavioural hyperactivity
